Values of other authors in patent US20110104282A1, “New Therapy of Treatment of the Irritable Bowel Syndrome” (Karolinska Institutet Innovations AB, priority 2008, published 2011).

Settings: on occasion

N[C@@H](Cc1c[nH]c2ccccc12)C(=O)O [tryptophan]
adverse side effects of high doses: intestinal discomfort and nausea
